Compound: CC(C)C[C@@H](C(=O)N[C@H](C(=O)OC1CCCC1)c1ccccc1)[C@H](O)C(=O)NO [Tosedostat] + Nc1nc2[nH]cc(CCc3ccc(C(=O)N[C@@H](CCC(=O)O)C(=O)O)cc3)c2c(=O)[nH]1 [Pemetrexed] (partner 0.2 µM)
Assay: relative viability (nuclei count vs DMSO), 5 days (fraction); higher = more cells survive
Settings: first compound 0.02 µM
In short: (§1)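 One day after seeding in 1536-well plates, lung cancer cell lines were dosed by pin tool. Dosing was either single-drug or a fixed anchor-drug dose plus five library-drug doses (not always all listed) in √10 steps. After 5 days, nuclei were stained in one fix-and-stain step and counted on 4× images, and relative viability is the nuclei count of treated wells over that of vehicle wells, given as the median of duplicate plates.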

Row | Cell Line | relative viability
1 | EKVX | 0.462
2 | LC-2-ad | 0.299
3 | NCI-H1666 | 0.888
4 | NCI-H1650 | 0.416
5 | PC-3 [JPC-3] | 1.03
6 | LOU-NH91 | 0.394

Same assay, conditions: first compound 0.06325 µM

Row | Cell Line | relative viability
7 | NCI-H1734 | 0.446
8 | EPLC-272H | 0.269
9 | NCI-H3122 | 0.213
10 | NCI-H2009 | 0.998
11 | NCI-H520 | 0.773
12 | NCI-H1651 | 0.637
13 | NCI-H1993 | 0.619
14 | NCI-H2228 | 0.32
15 | HCC-15 | 0.221
16 | EKVX | 0.427
17 | LC-2-ad | 0.303
18 | NCI-H1666 | 0.831
19 | NCI-H2085 | 1.02
20 | NCI-H1650 | 0.392
21 | PC-3 [JPC-3] | 1.18
22 | LOU-NH91 | 0.478

Same assay, conditions: first compound 0.2 µM

Row | Cell Line | relative viability
23 | NCI-H1734 | 0.428
24 | EPLC-272H | 0.306
25 | NCI-H3122 | 0.21
26 | NCI-H2009 | 1.07
27 | NCI-H520 | 0.743
28 | NCI-H1651 | 0.555
29 | NCI-H1993 | 0.716
30 | NCI-H2228 | 0.317
31 | HCC-15 | 0.213
32 | EKVX | 0.547
33 | LC-2-ad | 0.289
34 | NCI-H1666 | 0.88
35 | NCI-H2085 | 0.929
36 | NCI-H1650 | 0.413
37 | PC-3 [JPC-3] | 0.918
38 | LOU-NH91 | 0.447

Same assay, conditions: first compound 0.6325 µM

Row | Cell Line | relative viability
39 | NCI-H1734 | 0.517
40 | EPLC-272H | 0.241
41 | NCI-H3122 | 0.312
42 | NCI-H2009 | 0.977
43 | NCI-H520 | 0.782
44 | NCI-H1651 | 0.711
45 | NCI-H1993 | 0.532
46 | NCI-H2228 | 0.338
47 | HCC-15 | 0.243
48 | EKVX | 0.462
49 | LC-2-ad | 0.277
50 | NCI-H1666 | 0.991
51 | NCI-H2085 | 0.959
52 | NCI-H1650 | 0.475
53 | PC-3 [JPC-3] | 0.901
54 | LOU-NH91 | 0.487

Same assay, conditions: first compound 2 µM

Row | Cell Line | relative viability
55 | NCI-H1734 | 0.435
56 | EPLC-272H | 0.142
57 | NCI-H3122 | 0.325
58 | NCI-H2009 | 1.1
59 | NCI-H520 | 0.734
60 | NCI-H1651 | 0.623
61 | NCI-H1993 | 0.485
62 | NCI-H2228 | 0.256
63 | HCC-15 | 0.249
64 | EKVX | 0.477
65 | LC-2-ad | 0.251
66 | NCI-H1666 | 0.963
67 | NCI-H2085 | 0.714
68 | NCI-H1650 | 0.526
69 | PC-3 [JPC-3] | 0.54
70 | LOU-NH91 | 0.444

Compound: CC1=NN=C(O1)C2=NN=C(C=C2)N3CCC(CC3)OC4=C(C=CC(=C4)F)Cl + O=C(CCCCCCC(=O)Nc1ccccc1)NO [Vorinostat] (partner 1 µM)
Assay: as above
Settings: first compound 0.253 µM
In short: as §1

Row | Cell Line | relative viability
71 | NCI-H1734 | 0.721
72 | EPLC-272H | 0.352
73 | NCI-H3122 | 0.484
74 | NCI-H2009 | 0.428
75 | NCI-H520 | 0.561
76 | NCI-H1651 | 0.431
77 | NCI-H1993 | 0.681
78 | NCI-H2228 | 0.454
79 | HCC-15 | 0.534
80 | EKVX | 0.439
81 | LC-2-ad | 0.321
82 | NCI-H1666 | 0.735
83 | NCI-H2085 | 0.649
84 | NCI-H1650 | 0.323
85 | PC-3 [JPC-3] | 0.703

Same assay, conditions: first compound 0.8 µM

Row | Cell Line | relative viability
86 | NCI-H1734 | 0.692
87 | EPLC-272H | 0.529
88 | NCI-H3122 | 0.484
89 | NCI-H2009 | 0.343
90 | NCI-H520 | 0.712
91 | NCI-H1651 | 0.241
92 | NCI-H1993 | 0.763
93 | NCI-H2228 | 0.586
94 | HCC-15 | 0.431
95 | EKVX | 0.381
96 | LC-2-ad | 0.254
97 | NCI-H1666 | 0.862
98 | NCI-H2085 | 0.557
99 | NCI-H1650 | 0.289
100 | PC-3 [JPC-3] | 0.526
101 | LOU-NH91 | 0.853

Same assay, conditions: first compound 2.53 µM

Row | Cell Line | relative viability
102 | NCI-H1734 | 0.721
103 | EPLC-272H | 0.313
104 | NCI-H3122 | 0.443
105 | NCI-H2009 | 0.422
106 | NCI-H520 | 0.569
107 | NCI-H1651 | 0.389
108 | NCI-H1993 | 0.766
109 | NCI-H2228 | 0.391
110 | HCC-15 | 0.511
111 | EKVX | 0.442
112 | LC-2-ad | 0.322
113 | NCI-H1666 | 0.868
114 | NCI-H2085 | 0.687
115 | NCI-H1650 | 0.37
116 | PC-3 [JPC-3] | 0.797
117 | LOU-NH91 | 0.807

Same assay, conditions: first compound 8 µM

Row | Cell Line | relative viability
118 | NCI-H1734 | 0.737
119 | EPLC-272H | 0.387
120 | NCI-H3122 | 0.345
121 | NCI-H2009 | 0.36
122 | NCI-H520 | 0.613
123 | NCI-H1651 | 0.336
124 | NCI-H1993 | 0.762
125 | NCI-H2228 | 0.542
126 | HCC-15 | 0.554
127 | EKVX | 0.463
128 | LC-2-ad | 0.284
129 | NCI-H1666 | 0.864
130 | NCI-H2085 | 0.58
131 | NCI-H1650 | 0.333
132 | PC-3 [JPC-3] | 0.478
133 | LOU-NH91 | 0.922

From the supplement of paper PMC10307832
